Source: PubChem BioAssay AID449744 (Sanford-Burnham Center for Chemical Genomics, 2010)
The source made the active and inactive calls.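 The calls were made as follows: active = less UV crosslinking of translation factor eIF4H to capped RNA at 100 µM than solvent-only control; inactive = the rest.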

molecular target: Eukaryotic translation initiation factor 4H (Homo sapiens) (UniProt Q15056); assay: eIF4H binding to capped mRNA, inhibitors, SAR follow-up, orthogonal assay for translation initiation inhibitor project, biochemical, UV crosslinking, autoradiography (AID 449744)

**Q.** Which outcome does the source give for `CC(C)c1ccc(OC(=O)c2cccc(S(=O)(=O)N3CCN(C)CC3)c2)cc1` here?
**A.** Its outcome is “inactive”.

**Q.** How did the outcome turn out when `COc1cc([N+](=O)[O-])ccc1NC(=O)COC(=O)c1ccc2c(c1)NC(=O)CS2` was run?
**A.** The outcome was “inactive”.

**Q.** How did the outcome turn out when `CC(C)NC(=O)C(C)N1CCN(S(=O)(=O)c2ccc3ccccc3c2)CC1` (configuration not stated) was run?
**A.** The outcome was “inactive”.

**Q.** How did the outcome turn out when `CCOC(=O)N1CCC(NC(=O)c2cccc3c2C(=O)N(c2ccc(OC)cc2)C3)CC1` was run?
**A.** Its outcome is “inactive”.

**Q.** With `Cc1ccc(OC(C)C(=O)Nc2ccc3c(c2)n(C)c(=O)n3C)c(C)c1` (configuration not stated) as the compound, how does the outcome read?
**A.** The outcome was “inactive”.

**Q.** How did the outcome turn out when `Cc1ccc(NC(=O)CN2C(=O)N/C(=C/c3ccccc3OCc3cccc(C(=O)O)c3)C2=O)cc1` was run?
**A.** The outcome was “inactive”.

**Q.** How did the outcome turn out when `COc1ccc(N2Cc3cccc(C(=O)NC(C)CCc4ccco4)c3C2=O)cc1` (configuration not stated) was run?
**A.** The outcome was “inactive”.

**Q.** Which outcome does the source give for `COc1cc(C=NNC(=O)c2ccccc2O)ccc1OCC(=O)Nc1ccccc1` here?
**A.** The outcome was “inactive”.

**Q.** How did the outcome turn out when `CCn1c(=O)n(CC)c2cc(NC(=O)C(C)c3ccccc3)c(Br)cc21` (configuration not stated) was run?
**A.** Its outcome is “inactive”.

**Q.** `COc1cc(/C=N/NC(=O)c2ccccc2)ccc1OCC(=O)Nc1ccc([N+](=O)[O-])cc1` was tested. Which outcome did it give?
**A.** Its outcome is “inactive”.

**Q.** With `CCc1nnc(NC(=O)CSc2ccc(-c3ccco3)nn2)s1` as the compound, how does the outcome read?
**A.** The outcome was “inactive”.

**Q.** With `CCN1CCN(S(=O)(=O)c2ccc(Cl)c(C(=O)Nc3ccc(C(=O)N(CC)CC)cc3)c2)CC1` as the compound, how does the outcome read?
**A.** Its outcome is “inactive”.

**Q.** How did the outcome turn out when `O=C(COc1ccc(C=NNC(=O)c2ccc(O)cc2)cc1)Nc1ccc([N+](=O)[O-])cc1` was run?
**A.** The outcome was “inactive”.

**Q.** For `COc1cc([N+](=O)[O-])ccc1NC(=O)COC(=O)c1ccc(NC(N)=O)cc1`, which outcome is on record?
**A.** Its outcome is “inactive”.

**Q.** How did the outcome turn out when `CCOC(=O)c1ccc2c(c1)N(C)C(=O)c1ccccc1S2` was run?
**A.** The outcome was “inactive”.

**Q.** With `CCOC(=O)c1ccc2c(c1)N(CC)C(=O)c1ccccc1S2` as the compound, how does the outcome read?
**A.** The outcome was “inactive”.

**Q.** `O=C(Nc1ccccc1)C1CCN(C(=O)c2cccs2)CC1` was tested. Which outcome did it give?
**A.** The outcome was “inactive”.

**Q.** For `COC(=O)c1c(Sc2ccccc2)c2ccccc2n1C`, which outcome is on record?
**A.** The outcome was “inactive”.

**Q.** Which outcome does the source give for `O=C(Nc1cccc2ncccc12)c1ccccc1Cl` here?
**A.** Its outcome is “inactive”.

**Q.** How did the outcome turn out when `O=C(Nc1cccc2ncccc12)c1ccc(Cl)cc1` was run?
**A.** The outcome was “inactive”.

**Q.** With `Cc1ccc(NC(=O)C2CCN(C(=O)c3cccs3)CC2)c(C)c1` as the compound, how does the outcome read?
**A.** The outcome was “inactive”.

**Q.** For `COc1ccc(N2Cc3cccc(C(=O)N4CCN(C(=O)c5ccco5)CC4)c3C2=O)cc1`, which outcome is on record?
**A.** The outcome was “inactive”.
